By Ki is commonly meant a dissociation constant, usually derived from enzyme kinetics or from competition with a known ligand.

Our source for the Ki values is US10023559B2 (Hoffmann-La Roche Inc., priority 2014, dated 2018).

The target in assay [1] is rat TAAR1 (Rattus norvegicus (Rat), UniProt Q923Y9). In words: Radioligand binding assay on rat TAAR1. Particulars: read-out: Ki(μM) rat; rat TAAR1, HEK-293 membranes, second value of cell pair mouse/rat.
Method: Membrane Preparation and Radioligand Binding.
HEK-293 cells stably expressing rat TAAR1 were maintained at 37° C. and 5% CO2 in DMEM high glucose medium, containing fetal calf serum (10%, heat inactivated for 30 min at 56° C.), penicillin/streptomycin (1%), and 375 μg/ml geneticin (Gibco). Cells were released from culture flasks using trypsin/EDTA, harvested, washed twice with ice-cold PBS (without Ca^2+ and Mg^2+), pelleted at 1,000 rpm for 5 min at 4° C., frozen and stored at −80° C. Frozen pellets were suspended in 20 ml HEPES-NaOH (20 mM, pH 7.4) containing 10 mM EDTA and homogenized with a Polytron (PT 6000, Kinematica) at 14,000 rpm for 20 s. The homogenate was centrifuged at 48,000×g for 30 min at 4° C. Subsequently, the supernatant was removed and discarded, and the pellet resuspended in 20 ml HEPES-NaOH (20 mM, pH 7.4) containing 0.1 mM EDTA using the Polytron (20 s at 14,000 rpm). This procedure was repeated and the final pellet resuspended in HEPES-NaOH containing 0.1 mM EDTA and homogenized using the Polytron. Typically, aliquots of 2 ml membrane portions were stored at −80° C. With each new membrane batch the dissociation constant (Kd) was determined via a saturation curve. […] Nonspecific binding was defined as the amount of [H]—(S)-4-[(ethyl-phenyl-amino)-methyl]-4,5-dihydro-oxazol-2-ylamine bound in the presence of 10 M unlabeled ligand. All compounds were tested at a broad range of concentrations (10 pM to 10 μM) in duplicates. […] The 96 deep well plates were incubated for 1 hr at 4° C. Incubations were terminated by rapid filtration through Unifilter-96 plates (Packard Instrument Company) and glass filters GF/C (Perkin Elmer) presoaked for 1 hr in polyethylenimine (0.3%) and washed 3 times with 1 ml of cold binding buffer. After addition of 45 μl of Microscint 40 (PerkinElmer) the Unifilter-96 plate was sealed and after 1 hr the radioactivity counted using a TopCount Microplate Scintillation Counter (Packard Instrument Company).
Assay [2] concerns the target mouse TAAR1 (Mus musculus (Mouse), UniProt Q923Y8). Nature of the assay: Radioligand binding assay on mouse TAAR1.

Chain of mouse TAAR1 (Q923Y8 whole entry): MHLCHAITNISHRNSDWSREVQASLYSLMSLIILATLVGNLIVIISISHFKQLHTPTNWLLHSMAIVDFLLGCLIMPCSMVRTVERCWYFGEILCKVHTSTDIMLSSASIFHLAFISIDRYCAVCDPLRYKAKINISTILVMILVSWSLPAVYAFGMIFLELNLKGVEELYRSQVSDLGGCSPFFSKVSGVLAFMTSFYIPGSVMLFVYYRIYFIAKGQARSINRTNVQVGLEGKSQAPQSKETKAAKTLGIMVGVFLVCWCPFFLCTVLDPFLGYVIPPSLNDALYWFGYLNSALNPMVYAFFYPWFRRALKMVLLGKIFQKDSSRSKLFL
Chain of rat TAAR1 (Q923Y9 whole entry): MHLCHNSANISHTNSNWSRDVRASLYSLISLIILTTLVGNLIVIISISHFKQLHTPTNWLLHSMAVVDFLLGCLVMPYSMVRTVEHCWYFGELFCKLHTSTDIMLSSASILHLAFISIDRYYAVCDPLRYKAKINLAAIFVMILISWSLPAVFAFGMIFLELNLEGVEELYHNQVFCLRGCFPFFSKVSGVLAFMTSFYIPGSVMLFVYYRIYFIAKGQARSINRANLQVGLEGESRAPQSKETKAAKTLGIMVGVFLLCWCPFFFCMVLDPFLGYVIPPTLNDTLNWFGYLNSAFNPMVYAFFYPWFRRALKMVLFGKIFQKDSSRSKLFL

Consider `c1ccc(CC2CNC2)cc1` [Example 1, 3-benzylazetidine], for which the Ki in assay [1] was determined as 0.701 µM; in assay [2], 1570 nM.

In the case of `CN(c1ccc(NC(=O)c2ccnc(C(F)(F)F)c2)cc1)C1CNC1` [Example 2, N-[4-[azetidin-3-yl(methyl)amino]phenyl]-2-(trifluoromethyl)pyridine-4-carboxamide], the Ki worked out at 0.211 µM in assay [1] and 27.2 nM in assay [2].

For `O=C(Nc1ccc(NC2CNC2)cc1)c1ccnc(C(F)(F)F)c1` [Example 3, N-[4-(azetidin-3-ylamino)phenyl]-2-(trifluoromethyl)pyridine-4-carboxamide], the inhibitory constant (Ki) was determined as 0.66 µM in assay [1] and 77.7 nM in assay [2].

For `O=C(Nc1ccc(OC2CNC2)cc1)c1ccc(Cl)cc1` [Example 4, N-(4-(azetidin-3-yloxy)phenyl)-4-chlorobenzamide], the Ki in assay [1] was 0.0087 µM; in assay [2] it was 1.1 nM.

On to `O=C(Nc1ccc(OC2CNC2)cc1)c1ccnc(C(F)(F)F)c1` [Example 5, N-(4-(azetidin-3-yloxy)phenyl)-2-(trifluoromethyl)isonicotinamide], for which affinity in assay [2] was put at a Ki of 12.3 nM.

In assay [2], `O=C(Nc1ccc(OC2CNC2)cc1)c1cnc(C(F)(F)F)nc1` [Example 6, N-(4-(azetidin-3-yloxy)phenyl)-2-(trifluoromethyl)pyrimidine-5-carboxamide] gave an inhibition constant (Ki) of 19.5 nM.

Take `COc1cc(C(=O)Nc2ccc(OC3CNC3)cc2)cc(C#N)n1` [Example 7, N-(4-(azetidin-3-yloxy)phenyl)-2-cyano-6-methoxyisonicotinamide]: the Ki in assay [2] stood at 5.6 nM.

In the case of `FC(F)(F)c1nccc(Nc2ccc(OC3CNC3)cc2)n1` [Example 8, N-[4-(azetidin-3-yloxy)phenyl]-2-(trifluoromethyl)pyrimidin-4-amine], the values for the Ki in assay [1] and in assay [2] were 0.165 µM and 55 nM, respectively.

With `FC(F)(F)c1cnc(Nc2ccc(OC3CNC3)cc2)nc1` [Example 9, N-(4-(azetidin-3-yloxy)phenyl)-5-(trifluoromethyl)pyrimidin-2-amine], the inhibitory constant (Ki) in assay [1] was determined as 0.105 µM; in assay [2], 47.7 nM.

Consider `O=C(Nc1ccc(OC2CNC2)cc1)c1cc(C2CC2)n[nH]1` [Example 10, N-(4-(azetidin-3-yloxy)phenyl)-3-cyclopropyl-1H-pyrazole-5-carboxamide], for which the Ki in assay [1] was 0.0887 µM; in assay [2], 414 nM.

Take `CCc1n[nH]c(C(=O)Nc2ccc(OC3CNC3)cc2)c1C` [Example 11, N-(4-(azetidin-3-yloxy)phenyl)-3-ethyl-4-methyl-1H-pyrazole-5-carboxamide]: the results for the Ki in assay [1] and in assay [2] were 0.0808 µM and 64.5 nM, respectively.

With `CC(C)c1cc(C(=O)Nc2ccc(OC3CNC3)cc2)[nH]n1` [Example 12, N-(4-(azetidin-3-yloxy)phenyl)-3-isopropyl-1H-pyrazole-5-carboxamide], the inhibition constant Ki is 0.0927 µM in assay [1] and 137 nM in assay [2].

For `O=C(Nc1ccc(OC2CNC2)cc1)c1[nH]nc(C2CC2)c1Cl` [Example 13, N-(4-(azetidin-3-yloxy)phenyl)-4-chloro-3-cyclopropyl-1H-pyrazole-5-carboxamide], the results for the Ki in assay [1] and in assay [2] were 0.0178 µM and 3.3 nM, respectively.

On to `O=C(Nc1ccc(OC2CNC2)cc1)c1cnc(C2CC2)nc1` [Example 14, N-(4-(azetidin-3-yloxy)phenyl)-2-cyclopropylpyrimidine-5-carboxamide], for which the Ki was 0.1 µM in assay [1] and 14.9 nM in assay [2].

As for `CCc1ncc(C(=O)Nc2ccc(OC3CNC3)cc2)cn1` [Example 15, N-[4-(azetidin-3-yloxy)phenyl]-2-ethyl-pyrimidine-5-carboxamide], the Ki was determined as 0.261 µM in assay [1] and 57.1 nM in assay [2].

For the compound `Cc1ncc(C(=O)Nc2ccc(OC3CNC3)cc2)cn1` [Example 16, N-[4-(azetidin-3-yloxy)phenyl]-2-methyl-pyrimidine-5-carboxamide], the Ki amounted to 0.633 µM in assay [1] and 74.6 nM in assay [2].

In the case of `Cn1nc(C(F)(F)F)cc1C(=O)Nc1ccc(OC2CNC2)cc1` [Example 17, N-[4-(azetidin-3-yloxy)phenyl]-2-methyl-5-(trifluoromethyl)pyrazole-3-carboxamide], the results for the inhibition constant (Ki) in assay [1] and in assay [2] were 0.0969 µM and 72.9 nM, respectively.

`O=C(NCc1ccc(F)cc1)c1ccc(OC2CNC2)cc1` [Example 18, 4-(azetidin-3-yloxy)-N-[(4-fluorophenyl)methyl]benzamide]: the inhibitory constant (Ki) was found to be 1.63 µM in assay [1] and 109 nM in assay [2].

Turning to `O=C(Nc1ccc(OC2CNC2)cc1)c1cnc(OCC(F)(F)F)nc1` [Example 19, N-(4-(azetidin-3-yloxy)phenyl)-2-(2,2,2-trifluoroethoxy)pyrimidine-5-carboxamide], the inhibitory constant (Ki) in assay [1] is 0.0208 µM; in assay [2], 12.8 nM.

Turning to `O=C(Nc1ccccc1)c1ccc(OC2CNC2)cc1` [Example 20, 4-(azetidin-3-yloxy)-N-phenyl-benzamide], the Ki is 1.03 µM in assay [1] and 478 nM in assay [2].

In the case of `O=C(Nc1ccc(OC2CNC2)cc1)c1nn(CC(F)(F)F)cc1Cl` [Example 21, N-[4-(azetidin-3-yloxy)phenyl]-4-chloro-1-(2,2,2-trifluoroethyl)pyrazole-3-carboxamide], the values for the Ki in assay [1] and in assay [2] were 0.0207 µM and 653 nM, respectively.

As to `CCn1cc(Cl)c(C(=O)Nc2ccc(OC3CNC3)cc2)n1` [Example 22, N-[4-(azetidin-3-yloxy)phenyl]-4-chloro-1-ethyl-pyrazole-3-carboxamide], the Ki in assay [1] amounted to 0.0672 µM; in assay [2], 2030 nM.

As to `O=C(Nc1ccc(Cl)cc1)c1ccc(OC2CNC2)cc1` [Example 23, 4-(azetidin-3-yloxy)-N-(4-chlorophenyl)benzamide], the Ki in assay [1] came to 0.038 µM; in assay [2] it was 9.9 nM.

As to `O=C(Nc1ccc(OC2CNC2)cc1)c1cc(C(F)(F)F)n[nH]1` [Example 24, N-(4-(azetidin-3-yloxy)phenyl)-3-(trifluoromethyl)-1H-pyrazole-5-carboxamide], the Ki in assay [1] came to 0.0701 µM; in assay [2] it was 32.8 nM.

As to `O=C(Nc1ccc(OC2CNC2)c(F)c1)c1[nH]nc(C2CC2)c1Cl` [Example 25, N-[4-(azetidin-3-yloxy)-3-fluoro-phenyl]-4-chloro-3-cyclopropyl-1H-pyrazole-5-carboxamide], the results for the inhibition constant (Ki) in assay [1] and in assay [2] were 0.0113 µM and 3 nM, respectively.

Consider `O=C(Nc1ccc(OC2CNC2)c(F)c1)c1cnc(C(F)(F)F)nc1` [Example 26, N-[4-(azetidin-3-yloxy)-3-fluoro-phenyl]-2-(trifluoromethyl)pyrimidine-5-carboxamide], for which the Ki in assay [1] came out at 0.0238 µM; in assay [2], 16.1 nM.

Turning to `O=C(Nc1ccc(OC2CNC2)c(F)c1)c1cnc(C2CC2)nc1` [Example 27, N-[4-(azetidin-3-yloxy)-3-fluoro-phenyl]-2-cyclopropyl-pyrimidine-5-carboxamide], the inhibition constant Ki in assay [2] came out at 15.5 nM.

On to `CCOc1ccc(C(=O)Nc2ccc(OC3CNC3)c(F)c2)cn1` [Example 28, N-[4-(azetidin-3-yloxy)-3-fluoro-phenyl]-6-ethoxy-pyridine-3-carboxamide], for which the inhibition constant (Ki) in assay [1] came out at 0.0284 µM; in assay [2] it was 9.6 nM.

`Cn1nc(C(F)(F)F)c(Cl)c1C(=O)Nc1ccc(OC2CNC2)cc1` [Example 29, N-[4-(azetidin-3-yloxy)phenyl]-4-chloro-2-methyl-5-(trifluoromethyl)pyrazole-3-carboxamide]: the Ki in assay [1] came out at 0.0503 µM; in assay [2], 29 nM.

`O=C(Nc1ccc(Cl)nc1)c1ccc(OC2CNC2)cc1` [Example 30, 4-(azetidin-3-yloxy)-N-(6-chloropyridin-3-yl)benzamide]: the results for the Ki in assay [1] and in assay [2] were 0.527 µM and 19.1 nM, respectively.

For `O=C(Nc1ccc(OC2CNC2)cc1)c1[nH]nc(C2CC2)c1Br` [Example 31, N-[4-(azetidin-3-yloxy)phenyl]-4-bromo-3-cyclopropyl-1H-pyrazole-5-carboxamide], the figures for the inhibition constant Ki in assay [1] and in assay [2] were 0.0151 µM and 3.6 nM, respectively.

As for `CC(C)(C)c1n[nH]c(C(=O)Nc2ccc(OC3CNC3)cc2)c1Cl` [Example 32, N-[4-(azetidin-3-yloxy)phenyl]-3-tert-butyl-4-chloro-1H-pyrazole-5-carboxamide], the Ki was 0.0145 µM in assay [1] and 13.4 nM in assay [2].

On to `CC(C)c1n[nH]c(C(=O)Nc2ccc(OC3CNC3)cc2)c1Cl` [Example 33, N-[4-(azetidin-3-yloxy)phenyl]-4-chloro-3-isopropyl-1H-pyrazole-5-carboxamide], for which the inhibition constant Ki came to 0.0115 µM in assay [1] and 7.5 nM in assay [2].

As to `O=C(Nc1ccc(OC2CNC2)cc1)c1[nH]nc(-c2ccc(Cl)cc2)c1Cl` [Example 34, N-[4-(azetidin-3-yloxy)phenyl]-4-chloro-3-(4-chlorophenyl)-1H-pyrazole-5-carboxamide], the inhibition constant Ki in assay [1] worked out at 0.0021 µM; in assay [2] it was 0.9 nM.

With `O=C(Nc1ccc(SC2CNC2)cc1)c1[nH]nc(C2CC2)c1Cl` [Example 35, N-[4-(azetidin-3-ylsulfanyl)phenyl]-4-chloro-3-cyclopropyl-1H-pyrazole-5-carboxamide], the Ki stood at 0.0466 µM in assay [1] and 3.1 nM in assay [2].

`O=C(Nc1ccc(OC2CNC2)cc1F)c1[nH]nc(C2CC2)c1Cl` [Example 36, N-[4-(azetidin-3-yloxy)-2-fluoro-phenyl]-4-chloro-3-cyclopropyl-1H-pyrazole-5-carboxamide]: the figures for the Ki in assay [1] and in assay [2] were 0.029 µM and 13.9 nM, respectively.

In turn, `COc1ccc(C[C@@H]2NC[C@@H]2F)cc1` [Example 96, (2S,3S)-3-fluoro-2-(4-methoxybenzyl)azetidine] came in with a Ki in assay [2] of 2760 nM.

With `COc1ccc(C[C@@H]2NC[C@H]2F)cc1` [Example 97, (2S,3R)-3-fluoro-2-(4-methoxybenzyl)azetidine], in assay [2], the affinity, expressed as Ki, was 1630 nM.

In assay [2], `COc1ccc(C[C@H]2NC[C@H]2F)cc1` [Example 98, (2R,3R)-3-fluoro-2-(4-methoxybenzyl)azetidine] came in with an inhibition constant (Ki) of 200 nM.

On to `COc1ccc(C[C@H]2NC[C@@H]2F)cc1` [Example 99, (2R,3S)-3-fluoro-2-(4-methoxybenzyl)azetidine], for which the affinity in assay [2], expressed as Ki, was 200 nM.
